What all share (type): cell-based
For one experiment, the target named is T1, GLT-1 (Homo sapiens, UniProt P43004).
T1 construct: host or cells: HEK293 (virus made in GP293 packaging cells)
As to the kind of experiment: 3H-glutamate uptake counter assay in HEK293 cells overexpressing human GLT-1. How it is done:
The compound was obtained by screening of a library containing more than 50,000 lead-like compounds and fragments. The library was tested using a functional citrate uptake assay with HEK293 cells overexpressing recombinant human INDY. The following hit confirmation was conducted in the same assay system. To confirm the activity of selected compounds on the target INDY another cell assay was conducted. In this assay system citrate uptake was measured using HepG2 cells which endogenously express INDY. Furthermore selectivity of selected compounds was tested for two other transporters in different assay systems. The first transporter was the glutamate transporter GLT-1 tested in a glutamate uptake assays using HEK293 cells overexpressing recombinant human GLT-1. The second transporter was the glucose transporter GLUT1 tested in a glucose uptake assay using Huh-7 cells which endogenously express GLUT1. Compounds were considered to be selective with an at least 5-fold higher activity for INDY than for the other two transporters.
Cells were maintained in cell medium using cell culture grade flasks (CellSTACK Corning, 500 cm2 dishes or T175 depending on cell number). The selection antibiotic and G418 (800 μg/ml) was added during cultivation but not for seeding into assay plates. For splitting, cells were washed with PBS (w/o Ca2+, Mg2+, phenol red) and detached with Trypsin/EDTA. Throughout cultivation cells were kept sub-confluent. Detached cells (50,000 cells/well) were seeded in 96-well plates (white, clear bottom from Corning #655098) and incubated over night before usage in the assay. The following media were used. For HEK293 cells expressing INDY MEM (PAA)+10% FCS+1×P/S+2 mM L-Gln; for HEK293 cells expressing GLT-1 DMEM (Gibco)+10% FCS+400 µg/ml G418; for Huh7 cells DMEM (Gibco)+10% FCS+2 mM L-Gin (+1×P/S); for HepG2 cells MEM (PAA, Cat # E15-024)+10% FCS+2 mM L-Gin+1×NEAA+1 mM Na-Pyruvat
The following assay buffers for the particular uptake reaction were used. Citrate uptake buffer: 120 mM NaCl, 5.4 mM KCl, 0.8 mM MgSO4, 5 mM glucose, 1.8 mM CaCl2, 25 mM Hepes, 25 mM MES, pH 6.5. Glutamate uptake buffer: HBSS, 1 mM CaCl2, 1 mM MgCl2, 20 mM Hepes pH 7.4. Glucose uptake buffer: 25 mM Hepes+25 mM MES pH 7.4, 120 mM NaCl, 5.4 mM KCl, 1.8 mM CaCl2, 0.8 mM MgSO4.
As a counter assay, Glutamate uptake by the GLT-1 transporter was used. The principle of the assay is to measure the uptake of ^3H labelled glutamate into HEK cells, which overexpress human GLT-1.
The generation of a GLT-1 cell line was performed as follows: human GLT11 isoform sv1 cDNA (Origene # RC223924) was cloned into vector pFB-Neo-CMV-hGLT1 using QIAfilter Plasmid Midi Kit (Qiagen). Virus was generated in GP293 packaging cells (transfection of plasmid with Lipofectamine 2000+OptiMEM). For transfection into HEK cells GP293, supernatant containing virus was passed through a 0.45 micron sterile filter and DEAE-dextran was added at […] final concentration. The solution was used to transfect HEK293 cells at 37° C., 8.5% CO2. After 24 h selection marker G418 at 400 μg/ml was added and cultivation medium performed in DMEM 10% FBS.
The assay was performed in a 96-well format using repeated washing steps, cell lysis and addition of scintillation fluid. Assay buffer was HBSS, 1 mM CaCl2, 1 mM MgCl2, […] pH 7.4. Cells were seeded into white clear-bottom 96-well plates (50,000/well) in the presence of Poly-D-Lysine and incubated at 37° C. for 16-24 hours. Subsequently the plates were washed once with assay buffer using automated washing/LS 405 Selectors, BioTek ending with a buffer volume of 40 μl. Then 5 μl of compound solution in assay buffer was added and incubated for 20 min at 37° C. in cell incubator, HERA cell Heraeus. Afterwards 10 μl of substrate 3H-Glu (3 nM) were added and incubated for another 20 min at 37° C. in cell incubator, HERAcell. Then the plates were washed once with 200 μl cold assay buffer and 150 μl scintillation fluid was added. […]

The target of experiment [1] is T2, INDY (Homo sapiens, UniProt Q86YT5). As to the kind of experiment: 14C-citrate uptake in HEK293 cells overexpressing recombinant human INDY (NaCT). The arrangement: expressed in transfected cells; host or cells: HEK293. In a few lines:
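HEK293 cells overexpressing human NaCT, 50,000/well, preincubated 5-30 min at 37 °C with compound in pH 6.5 Na+ buffer. 14C-citrate ([…]) uptake then ran 20-90 min at 37 °C, followed by ice-cold washes, NaOH lysis and scintillation counting. 10 mM citrate served as positive control.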

Experiment [2] addresses T2, INDY. Kind of experiment: 14C-citrate uptake in HepG2 cells endogenously expressing INDY (NaCT). Particulars: endogenous INDY. In a few lines: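 HepG2 cells, which express INDY endogenously, were preincubated with compound for 5 min at 37 °C in pH 6.5 Na+ citrate uptake buffer. 14C-citrate ([…]) was then added for 90 min at 37 °C. After washing and NaOH lysis, uptake was measured by scintillation counting, with 5 mM citrate as positive control.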

Here are results for 20 molecules from patent US20200087258A1, “INHIBITOR OF CITRATE TRANSPORTER AND THEIR USE IN THERAPY” (Eternygen GmbH, priority 2017, published 2020).

What is called IC50 is the point on the concentration scale where inhibition reaches its midpoint.

T1 sequence (P43004 whole entry): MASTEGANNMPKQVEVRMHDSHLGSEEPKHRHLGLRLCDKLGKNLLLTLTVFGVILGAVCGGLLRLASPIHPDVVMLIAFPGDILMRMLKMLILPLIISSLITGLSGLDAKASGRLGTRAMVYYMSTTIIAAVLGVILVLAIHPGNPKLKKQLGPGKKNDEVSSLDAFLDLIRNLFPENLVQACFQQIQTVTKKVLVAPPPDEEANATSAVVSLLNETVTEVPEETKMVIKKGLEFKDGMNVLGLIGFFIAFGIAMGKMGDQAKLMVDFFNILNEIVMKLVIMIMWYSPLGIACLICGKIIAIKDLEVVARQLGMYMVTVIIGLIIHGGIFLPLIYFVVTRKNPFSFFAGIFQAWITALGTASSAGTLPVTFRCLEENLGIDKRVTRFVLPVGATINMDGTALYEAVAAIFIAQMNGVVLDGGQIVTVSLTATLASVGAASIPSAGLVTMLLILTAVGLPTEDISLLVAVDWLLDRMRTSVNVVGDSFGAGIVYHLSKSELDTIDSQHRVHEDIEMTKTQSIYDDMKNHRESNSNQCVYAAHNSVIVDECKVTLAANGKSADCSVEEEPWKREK
T2 sequence (Q86YT5 whole entry): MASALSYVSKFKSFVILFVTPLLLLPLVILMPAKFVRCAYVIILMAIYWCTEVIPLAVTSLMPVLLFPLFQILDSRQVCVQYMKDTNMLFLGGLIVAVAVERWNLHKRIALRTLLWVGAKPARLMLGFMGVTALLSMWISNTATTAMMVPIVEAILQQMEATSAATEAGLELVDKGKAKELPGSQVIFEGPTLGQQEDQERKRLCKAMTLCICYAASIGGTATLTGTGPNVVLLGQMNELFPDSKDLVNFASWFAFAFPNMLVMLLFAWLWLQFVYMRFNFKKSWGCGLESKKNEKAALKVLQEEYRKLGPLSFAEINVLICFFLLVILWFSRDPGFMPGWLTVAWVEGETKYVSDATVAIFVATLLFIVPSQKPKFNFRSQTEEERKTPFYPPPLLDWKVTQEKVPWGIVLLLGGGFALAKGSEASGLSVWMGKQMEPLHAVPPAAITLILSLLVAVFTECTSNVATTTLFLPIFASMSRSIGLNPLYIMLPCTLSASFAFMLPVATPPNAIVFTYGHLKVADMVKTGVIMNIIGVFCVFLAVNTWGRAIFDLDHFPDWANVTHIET

`O=C(NCc1ccccc1O)C1CCN(S(=O)(=O)c2ccc(C(F)(F)F)cc2)CC1` [Example 82, N-[(2-hydroxyphenyl)methyl]-1-[4-(trifluoromethyl)benzenesulfonyl]pipendine-4-carboxamide]: the concentration for half-maximal inhibition (IC50) on GLT-1 was more than 20000 nM; on INDY [1], 1100 nM; against INDY [2] it was 600 nM.
Regarding `Nc1ccccc1CNC(=O)C1CCN(S(=O)(=O)c2cc(Cl)cc(Cl)c2)CC1` [Example 81, N-[(2-aminophenyl)methyl]-1-(3,5-dichlorobenzenesulfonyl)pipendine-4-carboxamide], the half-inhibitory concentration (IC50) at GLT-1 is more than 20000 nM; at INDY [1] it was 400 nM; on INDY [2], 100 nM.
On the same counts, the results for `CC(F)c1cccc(S(=O)(=O)N2CCC(C(=O)NCc3ccccc3F)CC2)c1` (stereo not shown) [Example 112, 1-[3-(1-fluoroethyl)benzenesulfonyl]-N-[(2-fluorophenyl)methyl]piperidine-4-carboxamide] are more than 20000 nM, 1400 nM and 900 nM.
On the same counts, the results for `O=C(NCc1ccccn1)C1CCN(S(=O)(=O)c2cc(Cl)cc(Br)c2)CC1` [Example 96, 1-(3-bromo-5-chlorobenzenesulfonyl)-N-[(pyridin-2-yl)methyl]piperidine-4-carboxamide] are more than 20000 nM, 400 nM and 300 nM.
`O=C(NCc1ccccc1O)C1CCN(S(=O)(=O)c2cc(Cl)cc(Cl)c2)CC1` [Example 79, 1-(3,5-dichlorobenzenesulfonyl)-N-[(2-hydroxyphenyl)methyl]pipendine-4-carboxamide]: the IC50 at GLT-1 was more than 20000 nM; at INDY [1], 200 nM; on INDY [2], 100 nM.
The corresponding values for `O=C(NCc1ccccn1)C1CCN(S(=O)(=O)c2ccc(Cl)cc2Cl)CC1` [Example 73, 1-(2,4-dichlorobenzenesulfonyl)-N-[(pyridin-2-yl)methyl]pipendine-4-carboxamide] are more than 20000 nM, 2400 nM and 1600 nM.
The corresponding values for `CC(C)(C)c1ccc(S(=O)(=O)N2CCC(C(=O)NCc3ccccn3)CC2)cc1` [Example 37, 1-(4-tert-butylbenzenesulfonyl)-N-[(pyridin-2-yl)methyl]piperidine-4-carboxamide] are more than 20000 nM, 800 nM and 1100 nM.
Turning to `[N-]=[N+]=NCc1ccccc1CNC(=O)C1CCN(S(=O)(=O)c2cc(Cl)cc(Cl)c2)CC1` [Example 92, N-([2-(azidomethyl)phenyl]methyl)-1-(3,5-dichlorobenzenesulfonyl)piperidine-4-carboxamide], the 50% inhibitory concentration (IC50) on GLT-1 is more than 20000 nM; at INDY [1], 1000 nM; on INDY [2], 800 nM.
On the same counts, the results for `O=C(NCc1ccccc1F)C1CCN(S(=O)(=O)c2ccc(OC(F)(F)F)cc2)CC1` [Example 29, N-[(2-fluorophenyl)methyl]-1-[4-(trifluoromethoxy)benzenesulfonyl]piperidine-4-carboxamide] are more than 20000 nM, 500 nM and 400 nM.
The corresponding values for `Cc1cc(C)cc(S(=O)(=O)N2CCC(C(=O)NCc3ccccn3)CC2)c1` [Example 60, 1-(3,5-dimethylbenzenesulfonyl)-N-[(pyridin-2-yl)methyl]piperidine-4-carboxamide] are more than 20000 nM, 1300 nM and 700 nM.
With `CC(C)c1ccc(S(=O)(=O)N2CCC(C(=O)NCc3ccccn3)CC2)cc1` [Example 111, 1-[4-(propan-2-yl)benzenesulfonyl]-N-[(pyridin-2-yl)methyl]piperidine-4-carboxamide], the half-inhibitory concentration (IC50) at GLT-1 was more than 20000 nM; at INDY [1], 2700 nM; at INDY [2], 5200 nM.
With `CC(C)(C)c1ccc(S(=O)(=O)N2CC(C(=O)NCc3ccccc3Cl)C2)cc1` [Example 49, 1-(4-tert-butylbenzenesulfonyl)-N-[(2-chlorophenyl)methyl]azetidine-3-carboxamide], the half-maximal inhibitory concentration (IC50) against GLT-1 was more than 20000 nM; at INDY [1], 6400 nM; at INDY [2], 9000 nM.
`O=C(NCc1ccccn1)C1CCN(S(=O)(=O)c2cc(C(F)(F)F)cc(C(F)(F)F)c2)CC1` [Example 127, 1-[3,5-bis(trifluoromethyl)benzenesulfonyl]-N-[(pyridin-2-yl)methyl]piperidine-4-carboxamide]: the IC50 on INDY [1] turned out to be 3200 nM; against INDY [2], 1200 nM.
The corresponding values for `O=C(NCc1ccccc1O)C1CCN(S(=O)(=O)/C=C/c2ccccc2)CC1` [Example 41, N-[(2-hydroxyphenyl)methyl]-1-[(E)-2-phenylethenesulfonyl]piperidine-4-carboxamide] are 1800 nM and 3200 nM.
In the case of `O=C(NCc1cccc(F)c1)C1CCN(S(=O)(=O)c2cc(Cl)cc(Cl)c2)CC1` [Example 115, 1-(3,5-dichlorobenzenesulfonyl)-N-[(3-fluorophenyl)methyl]piperidine-4-carboxamide], the values for the IC50 on INDY [1] and against INDY [2] were 200 nM and 100 nM, respectively.
For the molecule `O=C(NCc1ccccn1)C1CCN(S(=O)(=O)c2ccc(C3(C(F)(F)F)CC3)cc2)CC1` [Example 125, N-[(pyridin-2-yl)methyl]-1-{4-[1-(trifluoromethyl)cyclopropyl]benzenesulfonyl}piperidine-4-carboxamide], the IC50 came to 800 nM at INDY [1] and 500 nM on INDY [2].
Consider `O=C(NCc1ccccc1F)C1CCN(S(=O)(=O)c2ccc(I)cc2)CC1` [Example 36, N-[(2-fluorophenyl)methyl]-1-(4-iodobenzenesulfonyl)piperidine-4-carboxamide], for which the IC50 on INDY [1] and against INDY [2] was 1000 nM throughout.
As to `O=C(NCc1cccc(F)c1F)C1CCN(S(=O)(=O)/C=C/c2ccccc2)CC1` [Example 22, N-[(2,3-difluorophenyl)methyl]-1-[(E)-2-phenylethenesulfonyl]piperidine-4-carboxamide], the results for the IC50 on INDY [1] and against INDY [2] were 3400 nM and 7000 nM, respectively.
The corresponding values for `O=C(NCc1ccccn1)C1CCN(S(=O)(=O)c2cc(F)cc(C(F)(F)F)c2)CC1` [Example 84, 1-[3-fluoro-5-(trifluoromethyl)benzenesulfonyl]-N-[(pyridin-2-yl)methyl]pipendine-4-carboxamide] are 4300 nM and 2200 nM.
The corresponding values for `COc1ccccc1CNC(=O)C1CCN(S(=O)(=O)c2ccc(C(C)(C)C)cc2)CC1` [Example 38, 1-(4-tert-butylbenzenesulfonyl)-N-[(2-methoxyphenyl)methyl]piperidine-4-carboxamide] are 300 nM and 800 nM.
